Source: PMC6754406, “Ran pathway-independent regulation of mitotic Golgi disassembly by Importin-α” (Nature Communications, 2019)
Where a SMILES comes first, the peptide text is derived from it. Where no end group is shown, it is not given here. [ ]: non-standard residue; d: D form. pS = N[C@@H](COP(=O)(O)O)C(=O)O

Columns and labels:
[1] = tested on: Importin-α associated with GM130; test: Immuno-precipitation of Importin-α with GM130 antibody, RO-3306-treated nocodazole-arrested HEK293T cells; type: cell-based; conditions: RO-3306-treated vs untreated, 10 µM/ml, 2 h; three independent experiments
Experimental: (§1) To pull down endogenous GM130, HEK293T cells were synchronized via nocodazole treatment and lysed in a buffer containing 50 mM Tris–HCl (pH 7.4), 150 mM NaCl, 1 mM EDTA, 10% glycerol, 1% Triton, 0.15% SDS, protease inhibitor cocktail (Roche), and 1 mM PMSF. Clarified lysates were pre-incubated with GM130 antibody (Abcam ab52649) for 12 h at 4 °C, followed by one hour incubation with IgG sepharose^TM 6 Fast Flow (GE Healthcare). Beads were then washed three times with buffer (20 mM HEPES pH 7.4, 150 mM NaCl, 1.5 mM MgCl2, 10% glycerol, 0.1% Triton). Protein samples were boiled in SDS sample buffer and analyzed by SDS–PAGE, followed by Western blotting analysis.
(§2) To prepare Cdk1 inhibitor treated lysates for GM130 pull-down assays, WT HEK293T cells were synchronized by 30 µM of nocodazole for 13 h, followed by treatment of Cdk1 inhibitor RO-3306 (10 µM/ml) (Sigma, cat#SML0569) for 2 h.
(§3) Sup ple me ntary Figu re 5. Cell-base d e xam ination of the K34A mutation of G M130. a, Representative fluorescent images of w ild-type and two K34A mutant cell lines at metaphase.
(§4) Sca le b a r : 1 0 µm. b, Images of nocodaz o le-ar r e st ed H EK 2 9 3 T ce ll s without (left) and w ith (right) RO-3306 treatment acquired by bright-field illum ination. Sc ale ba r: […]

[2] = tested on: p115 associated with GM130; test: Immuno-precipitation of p115 with GM130 antibody, RO-3306-treated nocodazole-arrested HEK293T cells; type: cell-based; conditions: RO-3306-treated vs untreated, 10 µM/ml, 2 h; three independent experiments
Experimental: as §1, §2, §3, §4

Cdk1 = conditions: 1-h RO-3306 treatment; ref [23]; cited from earlier work
Importin-β [3] = target: T1, Importin-β (Homo sapiens, UniProt Q14974); test: Isothermal titration calorimetry (ITC), Importin-β; type: binding; conditions: for ITC profile (exothermic / endothermic): 25 °C
T1 construct: GST (N, cleaved yes); made in house; host or cells: Escherichia coli Rosetta
T1 sequence (Q14974 whole entry): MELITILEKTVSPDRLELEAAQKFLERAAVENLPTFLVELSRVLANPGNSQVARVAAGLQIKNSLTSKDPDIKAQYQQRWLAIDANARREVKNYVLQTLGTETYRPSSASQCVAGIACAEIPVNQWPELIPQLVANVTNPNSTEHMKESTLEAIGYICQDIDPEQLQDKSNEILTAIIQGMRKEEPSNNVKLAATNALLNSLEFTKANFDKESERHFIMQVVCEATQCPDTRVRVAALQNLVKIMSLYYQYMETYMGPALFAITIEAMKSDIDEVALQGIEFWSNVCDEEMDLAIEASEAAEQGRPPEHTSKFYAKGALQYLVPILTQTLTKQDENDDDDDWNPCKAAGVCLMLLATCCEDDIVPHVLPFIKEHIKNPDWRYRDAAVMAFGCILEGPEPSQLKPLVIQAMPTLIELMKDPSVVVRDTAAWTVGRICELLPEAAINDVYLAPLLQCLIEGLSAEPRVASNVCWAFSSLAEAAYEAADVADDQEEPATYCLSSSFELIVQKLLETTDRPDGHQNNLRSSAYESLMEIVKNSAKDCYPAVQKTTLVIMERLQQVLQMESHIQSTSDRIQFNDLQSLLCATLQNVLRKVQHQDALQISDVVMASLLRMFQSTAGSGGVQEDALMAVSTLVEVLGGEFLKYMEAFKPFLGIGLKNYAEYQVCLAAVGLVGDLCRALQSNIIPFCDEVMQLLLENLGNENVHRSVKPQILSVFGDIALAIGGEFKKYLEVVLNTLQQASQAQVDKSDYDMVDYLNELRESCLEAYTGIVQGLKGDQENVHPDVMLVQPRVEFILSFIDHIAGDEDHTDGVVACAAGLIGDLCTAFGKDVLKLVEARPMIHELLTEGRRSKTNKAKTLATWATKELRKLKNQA
From the text: Homo sapiens GM130 (a.a. 1–48), GM130 (a.a. 1–85), and Importin-β were amplified by PCR and ligated into pGEX-6P-1 (GE Healthcare). H. sapiens full-length Importin-α and Mus musculus Importin-α were amplified by PCR and ligated into modified pGEX-6P-1 (GE Healthcare) that produces proteins with 6-His at the C–terminus. Mouse Importin-α shares ~95% identity with human Importin-α over the full protein sequence, so we used the former for biochemical and structural studies. GM130-S25D (a.a. 1–48), GM130-S25D (a.a. 1–85), GM130-S25D/K14A (a.a. 1–85), and GM130-S25D/K34A (a.a. 1–85) mutants were created by PCR-based mutagenesis and were verified by sequencing. A list of primer sequences used in this study is shown in Supplementary Table 1.
Binding affinities of different GM130 proteins to Importin-α and Importin-β were measured by ITC (MicroCal iTC200). All proteins were dialyzed against ITC buffer (20 mM HEPES pH 7.4, 1 mM DTT) with either 50 or 200 mM NaCl. Protein concentrations were determined spectrophotometrically with respective extinction coefficients. ITC was performed at 25 °C. The respective heat changes were fitted using a one-sites binding model.

Importin-β [4] = target: T1, Importin-β; test: Size exclusion chromatography co-migration with Importin-β; type: binding; conditions: Superdex 200, 20 mM HEPES pH 7.4, 50 mM NaCl, 3 mM DTT, 1:1
Experimental: Fig. 4 Ran and a phosphate moiety repress GM130 and Importin-β interaction. a SEC (Superdex 200) elution profiles for the Importin-β•GST-GM130-WT complex (black line), Importin-β (gray line), and GST-GM130-WT (light gray line). The void volume (Vo) is indicated. b–d The peak fractions of the Importin-β•GST-GM130-WT complex (b), Importin-β (c), and GST-GM130-WT (d) were analyzed by SDS–PAGE and stained with Coomassie blue. e, f ITC titration curves (upper) and binding isotherms (lower) of Importin-β with GM130-NLS WT (e) and GM130-NLS phospho-S25 (f). Kd values are indicated. g Competition binding assay. GST-GM130-S25D and Importin-β were incubated with indicated concentrations of GFP-IBB. Samples pulled down by GST beads were analyzed by SDS–PAGE and stained with Coomassie blue. […] GST-bound samples were analyzed by SDS–PAGE and stained with Coomassie blue. i, k Band intensities of Importin-α or Importin-β from the SDS–PAGE gels in h, j were used to determine averages of bound protein. […]
GST-GM130-WT and GST-GM130-S25D were, respectively, incubated with Importin-β or Importin-α FL in a molar ratio of 1:1. […] Peak fractions were analyzed by SDS–PAGE.

[5] = target: T2, Importin-α(ΔIBB) (a.a. 70–524) (Mus musculus, UniProt P52293); test: Isothermal titration calorimetry (ITC), Importin-α(ΔIBB); type: binding; conditions: 200 mM NaCl
T2 construct: Importin-α lacking the IBB domain (a.a. 70–524; hereafter Importin-α(ΔIBB)); GST (N); made in house; host or cells: Escherichia coli Rosetta
From the text: Phosphorylation of GM130 on Ser-25 is correlated with p115 dissociation, with this process appearing to be specific to mitosis and being responsible for reduction of p115-mediated vesicle fusion to Golgi membranes[5]–[7],[9],[10]. The N-terminal region of GM130 and the p115 C-terminus interact[11],[12], so we purified recombinant proteins containing these two regions and then assessed their binding affinity by isothermal titration calorimetry (ITC). The wild type GM130 N-terminal region (a.a. 1-85; hereafter GM130-WT) directly bound p115 (a.a. 780–930; hereafter p115-CTD) (Fig. 1a). Furthermore, we examined if GM130 phosphorylation reduces the binding affinity for p115. […] We found in competition-binding assays that p115-CTD pulldown by GST-GM130-S25D was reduced when we added increasing amounts of Importin-α lacking the IBB domain (a.a. 70–524; hereafter Importin-α(ΔIBB)) (Fig. 1c). […] Therefore, we propose that binding of Importin-α to GM130 could be primarily responsbile for preventing interaction between p115 and GM130 during mitosis.
Homo sapiens GM130 (a.a. 1–48), GM130 (a.a. 1–85), and Importin-β were amplified by PCR and ligated into pGEX-6P-1 (GE Healthcare). […]
Binding affinities of different GM130 proteins to Importin-α and Importin-β were measured by ITC (MicroCal iTC200). […] Protein concentrations were determined spectrophotometrically with respective extinction coefficients. […]

| ITC profile (exothermic / endothermic) (Importin-β [3]) | co-migration with Importin-β by SEC (Importin-β [4]) | binding affinity for Importin-α(ΔIBB) vs wild type [5] | binding constant relative to wild-type GM130 peptide (Importin-β [3]; relative to wild-type GM130 peptide) | Molecule | Importin-α pulldown by GM130 [1] | p115 pulldown by GM130 [2] | block of Cdk1 activity (Cdk1) | morphological transition (Cdk1) |
| --- | --- | --- | --- | --- | --- | --- | --- | --- |
| – | – | – | – | O=C1NC(=NCc2cccs2)S/C1=C\c1ccc2ncccc2c1 [RO-3306] | reduced | enhanced | sufficient to block Cdk1 activity | morphological transition from rounded mitotic cells to a flat interphase shape |
| exothermic profile | co-migration | – | – | AKKKLREYQQRNSPGVPTGAKKKKKIK [GM130-NLS WT] | – | – | – | – |
| endothermic curve | – | better binding affinities | at least three orders of magnitude lower | CC[C@H](C)[C@H](NC(=O)[C@H](CCCCN)NC(=O)[C@H](CCCCN)NC(=O)[C@H](CCCCN)NC(=O)[C@H](CCCCN)NC(=O)[C@H](CCCCN)NC(=O)[C@H](C)NC(=O)CNC(=O)[C@@H](NC(=O)[C@@H]1CCCN1C(=O)[C@@H](NC(=O)CNC(=O)[C@@H]1CCCN1C(=O)[C@H](COP(=O)(O)O)NC(=O)[C@H](CC(N)=O)NC(=O)[C@H](CCCNC(=N)N)NC(=O)[C@H](CCC(N)=O)NC(=O)[C@H](CCC(N)=O)NC(=O)[C@H](Cc1ccc(O)cc1)NC(=O)[C@H](CCC(=O)O)NC(=O)[C@H](CCCNC(=N)N)NC(=O)[C@H](CC(C)C)NC(=O)[C@H](CCCCN)NC(=O)[C@H](CCCCN)NC(=O)[C@H](CCCCN)NC(=O)[C@H](C)N)C(C)C)[C@@H](C)O)C(=O)N[C@@H](CCCCN)C(=O)N[C@@H](CC(N)=O)C(=O)O [GM130-NLS phospho-S25] (H-AKKKLREYQQRN[pS]PGVPTGAKKKKKIKN-OH; N-terminus and C-terminus assumed) | – | – | – | – |
